Reference: patent US9144229B2, “Tissue specific expression of antibodies in chickens” (Synageva BioPharma Corp., priority 2002, dated 2015)

Test system: chicken embryonic stem cells
Assay: Titration kill curve of chicken ES cells under puromycin or neomycin selection
Type: cell-based
Design: key to Morphology of cES cells: ES cells are present.; ES cells are differentiated.; gone: no morphologically recognizable cells are present
Procedure: In a preferred embodiment, the concentration of puromycin required for selecting transfected cells is calculated as a titration kill curve. Titration kill curves for chicken embryonic stem cells are established by exposing cells in culture to puromycin concentrations varying from 0.0 to 1.0 μg/ml for 10 days (Table 7) and neomycin concentrations varying from 0.0 to 200 μg/ml (Table 8). The medium is changed every 2 days and fresh puromycin or neomycin is added. […] Puromycin concentrations of 0.3-1.0 μg/ml are used for selection of the transfected cultures. Neomycin concentrations over 40 μg/ml eliminated all cES cells within 7 days (Table 8).

neomycin
Morphology of cES cells (neomycin 10 μg/ml, day 1): ES | Morphology of cES cells (neomycin 10 μg/ml, day 2): ES | Morphology of cES cells (neomycin 10 μg/ml, day 3): ES | Morphology of cES cells (neomycin 10 μg/ml, day 4): ES | Morphology of cES cells (neomycin 10 μg/ml, day 5): ES | Morphology of cES cells (neomycin 10 μg/ml, day 6): ES | Morphology of cES cells (neomycin 10 μg/ml, day 7): ES | Morphology of cES cells (neomycin 10 μg/ml, day 8): ES | Morphology of cES cells (neomycin 10 μg/ml, day 9): ES | Morphology of cES cells (neomycin 10 μg/ml, day 10): ES | Morphology of cES cells (neomycin 20 μg/ml, day 1): ES | Morphology of cES cells (neomycin 20 μg/ml, day 2): ES | Morphology of cES cells (neomycin 20 μg/ml, day 3): ES | Morphology of cES cells (neomycin 20 μg/ml, day 4): ES | Morphology of cES cells (neomycin 20 μg/ml, day 5): ES | Morphology of cES cells (neomycin 20 μg/ml, day 6): ES | Morphology of cES cells (neomycin 20 μg/ml, day 7): ES | Morphology of cES cells (neomycin 20 μg/ml, day 8): ES | Morphology of cES cells (neomycin 20 μg/ml, day 9): ES | Morphology of cES cells (neomycin 20 μg/ml, day 10): ES | Morphology of cES cells (neomycin 30 μg/ml, day 1): ES | Morphology of cES cells (neomycin 30 μg/ml, day 2): ES | Morphology of cES cells (neomycin 30 μg/ml, day 3): ES | Morphology of cES cells (neomycin 30 μg/ml, day 4): ES | Morphology of cES cells (neomycin 30 μg/ml, day 5): ES | Morphology of cES cells (neomycin 30 μg/ml, day 6): ES | Morphology of cES cells (neomycin 30 μg/ml, day 7): ES/Diff | Morphology of cES cells (neomycin 30 μg/ml, day 8): ES/diff | Morphology of cES cells (neomycin 30 μg/ml, day 9): Diff | Morphology of cES cells (neomycin 30 μg/ml, day 10): Diff/ | Morphology of cES cells (neomycin 40 μg/ml, day 1): ES | Morphology of cES cells (neomycin 40 μg/ml, day 2): ES | Morphology of cES cells (neomycin 40 μg/ml, day 3): ES | Morphology of cES cells (neomycin 40 μg/ml, day 4): ES | Morphology of cES cells (neomycin 40 μg/ml, day 5): ES/Diff | Morphology of cES cells (neomycin 40 μg/ml, day 6): Diff/ | Morphology of cES cells (neomycin 40 μg/ml, day 7): dead | Morphology of cES cells (neomycin 40 μg/ml, day 8): gone | Morphology of cES cells (neomycin 40 μg/ml, day 9): gone | Morphology of cES cells (neomycin 40 μg/ml, day 10): gone | Morphology of cES cells (neomycin 50 μg/ml, day 1): ES | Morphology of cES cells (neomycin 50 μg/ml, day 2): ES | Morphology of cES cells (neomycin 50 μg/ml, day 3): ES | Morphology of cES cells (neomycin 50 μg/ml, day 4): ES/Diff | Morphology of cES cells (neomycin 50 μg/ml, day 5): ES/Diff | Morphology of cES cells (neomycin 50 μg/ml, day 6): Diff/ | Morphology of cES cells (neomycin 50 μg/ml, day 7): Dead/ | Morphology of cES cells (neomycin 50 μg/ml, day 8): gone | Morphology of cES cells (neomycin 50 μg/ml, day 9): gone | Morphology of cES cells (neomycin 50 μg/ml, day 10): gone | Morphology of cES cells (neomycin 60 μg/ml, day 1): ES | Morphology of cES cells (neomycin 60 μg/ml, day 2): ES | Morphology of cES cells (neomycin 60 μg/ml, day 3): ES | Morphology of cES cells (neomycin 60 μg/ml, day 4): gone | Morphology of cES cells (neomycin 60 μg/ml, day 5): gone | Morphology of cES cells (neomycin 60 μg/ml, day 6): gone | Morphology of cES cells (neomycin 60 μg/ml, day 7): gone | Morphology of cES cells (neomycin 60 μg/ml, day 8): gone | Morphology of cES cells (neomycin 60 μg/ml, day 9): gone | Morphology of cES cells (neomycin 60 μg/ml, day 10): gone | Morphology of cES cells (neomycin 100 μg/ml, day 1): ES/Diff | Morphology of cES cells (neomycin 100 μg/ml, day 2): Diff | Morphology of cES cells (neomycin 100 μg/ml, day 3): dead | Morphology of cES cells (neomycin 100 μg/ml, day 4): gone | Morphology of cES cells (neomycin 100 μg/ml, day 5): gone | Morphology of cES cells (neomycin 100 μg/ml, day 6): gone | Morphology of cES cells (neomycin 100 μg/ml, day 7): gone | Morphology of cES cells (neomycin 100 μg/ml, day 8): gone | Morphology of cES cells (neomycin 100 μg/ml, day 9): gone | Morphology of cES cells (neomycin 100 μg/ml, day 10): gone | Morphology of cES cells (neomycin 150 μg/ml, day 2): dead | Morphology of cES cells (neomycin 150 μg/ml, day 3): dead | Morphology of cES cells (neomycin 150 μg/ml, day 4): gone | Morphology of cES cells (neomycin 150 μg/ml, day 5): gone | Morphology of cES cells (neomycin 150 μg/ml, day 6): gone | Morphology of cES cells (neomycin 150 μg/ml, day 7): gone | Morphology of cES cells (neomycin 150 μg/ml, day 8): gone | Morphology of cES cells (neomycin 150 μg/ml, day 9): gone | Morphology of cES cells (neomycin 150 μg/ml, day 10): gone | Morphology of cES cells (neomycin 200 μg/ml, day 2): dead | Morphology of cES cells (neomycin 200 μg/ml, day 3): gone | Morphology of cES cells (neomycin 200 μg/ml, day 4): gone | Morphology of cES cells (neomycin 200 μg/ml, day 5): gone | Morphology of cES cells (neomycin 200 μg/ml, day 6): gone | Morphology of cES cells (neomycin 200 μg/ml, day 7): gone | Morphology of cES cells (neomycin 200 μg/ml, day 8): gone | Morphology of cES cells (neomycin 200 μg/ml, day 9): gone | Morphology of cES cells (neomycin 200 μg/ml, day 10): gone | concentration that eliminated all cES cells (neomycin, within 7 days): over 40 μg/ml
